# Literature values as cited in patent US10772813B2, “Compositions and methods of administering a colchicine based topical composition for the prevention of radiation fibrosis” (Colradel, LLC, priority 2016, dated 2020).
# Entries after “also recorded” stand apart in the source; their conditions may differ.
# Columns and labels:
# [1] = test system: radiation-induced fibrosis; conditions: single agent, oral
# [2] = topical vs high oral doses
# [3] = test system: fibroblasts; conditions: low doses
molecule,measurement,setting,value
"CC(=O)CCCCn1c(=O)c2c(ncn2C)n(C)c1=O [pentoxifylline, 3,7-dimethyl-1-5-(5-oxohexyl)-xanthine]",improvement in late radiation-induced fibrosis,[1],significant improvement
tocopherol [vitamin E],concentration achievable by topical administration versus high doses orally,[2],11 times
COc1cc2c(c(OC)c1OC)-c1ccc(OC)c(=O)cc1[C@@H](NC(C)=O)CC2 [colchicine],inhibition of fibroblast migration,[3],93%
same,side effects,[3],without any side effects
same,concentration in the skin / dermis,0.2% colchicine ointment compared with 0.5%,same concentration in the dermis 0.5%; also recorded: the same concentration in the skin as 0.5%
same,side effects,"0.2% formulation (0.2 gram in 100 ml), transdermal ointment",no side effects
same,transdermal absorption,"ointment, treatment of gout",well-absorbed transdermally
